The text below walks through data of patent US7485710B2, “Nucleic acids coding for adhesion factor of group B streptococcus, adhesion factors of group B streptococcus and further uses thereof” (priority 2002, dated 2009).

In experiment [1] the test system is A549 cells. Put plainly: Epithelial cell adherence and internalization assay of GBS 6313 in presence of proteins. Type of experiment: cell-based, human. The settings on record: for adherence of GBS 6313 to A549 cells in the presence of fusion protein / invasion of A549 cells by GBS 6313 in the presence of fusion protein: 100 μg/ml fusion protein (FIG. 19). Here is the method:
The adherence of GBS 6313 to A549 cells (A) and its internalization into these cells (B) was arbitrarily set to 100% and the results obtained in the presence of the different fusion proteins was related to these values. Each experiment was performed at least three times in triplicate.
Adherence of GBS to epithelial cells and internalization into epithelial cells was assayed essentially as described previously (Caparon et al., 1991; Rubens et al. 1992). Briefly, A549 cells were transferred to 24-well tissue culture plates at approximately 4×10^5 cells per well and cultivated overnight in RPMI (Gibco BRL) tissue culture medium, supplemented with 10% of fetal calf serum. After replacement of the medium with 1 ml of fresh medium, the cells were infected with 5×10^6 streptococci per well and incubated at 37° C. for 2 h. The non-adherent bacteria were removed by washing three times with PBS. In adherence assays, the epithelial cells were subsequently detached from the well by the addition of trypsin/EDTA and lysed by adding 300 μl of distilled water. Adherent bacteria were quantitated by plating serial dilutions of the lysate onto THY agar plates. For internalization assays the epithelial cells were incubated after 2 h of infection for another 2 h in tissue culture medium supplemented with penicilling G (10 U) and streptomycin (0.01 mg) to kill extracellular bacteria. After three washes with PBS, the epithelial cells were detached by the addition of trypsin/EDTA and lysed in 300 μl of distilled water. The amount of intracellular bacteria was quantified by plating serial dilutions of the lysate onto THY agar plates. Each experiment was repeated at least three times in triplicate. […]
Adherence of S. agalactiae to A549 and HEL299 cells and internalization into these cells was assayed essentially as described in Example 1 for A549 cells. In some experiments, A549 cells were preincubated with different amounts of FbsA protein or FbsA-derived peptides in RPMI medium for 30 min with three subsequent washes with PBS.

Another experiment has as its system GBS strain 6313. Put plainly: Binding of radiolabelled human proteins to GBS. Set-up: species or system Streptococcus agalactiae. To be noted: untreated bacteria. On the procedure: Purified human fibrinogen was radiolabelled with ^125I, using the chloramin T method (Hunter and Greenwood, 1962). Binding of labelled fibrinogen to GBS was performed essentially as described by Chhatwal et al. (Chhatwal, Muller, and Blobel, 1983). Briefly, overnight cultures of GBS were pelleted by centrifugation, washed twice with phosphate-buffered saline supplemented with 0.02% Tween 20 (PBST) and adjusted photometrically to a transmission of 10% at 600 nm. A total of 0.2 ml of the bacterial suspension was added to 20 μl of ^125I-labelled fibrinogen containing 23 ng of fibrinogen. After incubation for 1 h at room temperature, the streptococci were sedimented by centrifugation and washed with 1 ml of PBST. The radioactivity of the pellet was finally measured in a gamma counter (Packard Instruments). The amount of bacterial-bound fibrinogen was calculated as the percentage of total radiolabelled fibrinogen added to the bacteria. In inhibition experiments, the binding of 23 ng of radiolabelled fibrinogen to 0.2 ml of GBS (T=10%) was determined in the presence of various amounts of FbsA fusion proteins, Bsp fusion protein or synthetic peptides. Each experiment was repeated at least three times in triplicate.
GBS strain 6313, belonging to serotype III, was tested in binding experiments for its interaction with radiolabelled human vitronectin, laminin, fibronectin, fibrinogen, and IgG. […]

Experiment [2] relates to A549 cells. Put plainly: Interaction of protein-coated latex beads with A549 cells (scanning electron microscopy). Type of experiment: cell-based, human. On the procedure:
BSA-coated latex beads were used as a control.
Latex beads were either coated with BSA (A) or FbsA fusion protein (B-D) and the interaction of the coated beads with the lung epithelial cell line A549 was analyzed by scanning electron microscopy.
Approximately […] latex beads (3 μm diameter, Sigma) were washed tree times in PBS and then coated with 300 μg of fusion protein or BSA in 500 μl PBS overnight at 4° C. Coated beads were washed once in PBS and then blocked with 200 μl of 10 mg/ml BSA in PBS for 1 h at room temperature. Beads were washed twice in PBS and once in RPMI+10% FCS and then resupended in 1 ml of RPMI+10% FCS. 300 μl of beads were added to approximately 4×10^5 A549 cells in 24-well plates. The cells were incubated for 1 h at 37° C. (5% CO2), washed five times with PBS and fixed in a solution containing 3% glutaraldehyde and 5% formaldehyde in cacodylate bluffer for 45 min on ice. The samples were washed with cacodylate buffer, dehydrated in a graded series of acetone and subjected to critical point drying with CO2. Samples were then coated with a 10 nm thick gold film and examined by scanning electron microscopy as described previously (Reinscheid et al., 2001a).
Approximately 1×10^9 latex beads (3 μm diameter, Sigma) were washed three times in 25 mM 2-N-morpholinoethanesulfonic acid (MES), pH 6.8. One half was resuspended in 1.0 ml MES buffer containing 500 μg/ml FbsA fusion protein and the remaining half was resuspended in 1.0 ml MES buffer. The beads were incubated overnight at 4° C. with end-over-end rotation. After pelleting of the beads by centrifugation, the amount of remaining protein in the supernatant was determined with a Bradford protein assay kit (BioRad). The beads were washed once with MES buffer and blocked for 1 h with 10 mg/ml BSA in MES buffer at room temperature. The beads were washed twice with MES buffer, once with RPMI+10% FCS, and resuspended in RPMI+10% FCS. Confluent A549 cells in 24-well plates were inoculated with 2×10^8 beads per well in a total volume of 1.0 ml. The bead monolayer mixtures were incubated for 2 h at 37° C. in a 5% CO2 atmosphere. Cells were washed five times with PBS and fixed with 3% paraformaldehyde and 4% glutaraldehyde in […] cacodylate buffer for scanning electron microscopy. Scanning electron microscopy was performed with a Zeiss DSM 962 microscope.

The nature of experiment [3]: Subcutaneous immunization of mice and probing of fusion proteins with mice sera. To be noted: boost after three weeks, serum after six weeks, 1:1000 dilution. Type of experiment: in vivo. From the text:
Serial dilutions of the fusion proteins PabA, PabB, and PabD were spotted onto nitrocellulose and probed with a 1:1000 dilution of the mice sera against the respective proteins. Bound antibodies were labelled with an anti-mouse-HRP conjugate and visualized by chemiluminescence.
To test, if the proteins PabA, PabB and PabD elicit an immune response in mice, purified PabA, PabB and PabD fusion protein was used for the subcutaneous immunization of mice. The mice were boosted after three weeks and serum was collected six weeks after the first immunization. Serial dilutions of the PabA, PabB, and PabD fusion proteins were blotted onto nitrocellulose and probed with the mice sera against the different proteins.

Where [4] appears, read: 1 μg/ml of externally added fibrinogen.
The mark [5] stands for this setting: fibrinogen 0.1 μg/ml to 1.0 μg/ml, fibronectin 10 μg/ml, data not shown.

In the case of “fibrinogen: purified human fibrinogen (Sigma), 330 kDa plasma glycoprotein [reference compound]”, in the experiment with A549 cells [1] (setting [4]), the “reduction of the adherence of GBS 6313 to A549 cells” value was 90% and the “reduction of the invasion of A549 cells by GBS 6313” value amounted to 90%. Further, in the experiment on A549 cells [1] (setting [5]), the “bacterial adherence to A549 cells after pre-incubation of S. agalactiae 6313 with protein” value is “dose-dependent inhibition” and the “bacterial invasion of A549 cells after pre-incubation of S. agalactiae 6313 with protein” value is recorded as “dose-dependent inhibition”. Further, the “radiolabelled protein accumulated on the surface of GBS 6313 (of total)” value in the experiment with GBS strain 6313 is “about 50%”.
On to PabA, for which the “binding of protein-coated latex beads to A549 cells” value in the experiment with A549 cells [2] is “significant binding”. For the same molecule, in the experiment with A549 cells [1], the “adherence of GBS 6313 to A549 cells in the presence of fusion protein” value is “significantly reduced” and the “invasion of A549 cells by GBS 6313 in the presence of fusion protein” value is “significantly reduced”. For the same molecule, the “immune response in mice (detection of fusion protein by mice sera)” value in experiment [3] is given as “high immunogenicity”.

B1: PabD: C-terminally his-tagged fusion protein of GBS 6313 PabD (gbs0851) devoid of signal peptide (protein)
chain: DDNFEMPTRYVKMSEKSKAFYQRLQEKQRKAHTTVKTFNNSEIRHQLPLKQEKARNDIYNLGILISQESKGFIQRIDNAYSLENVSDIVNEAQALYKRNYDLFEKIKSTRDKVQVLLASHQDNTDLKNFYAELDDMYEHVYLNESRVEAINRNIQKYN
modifications: left off: small tags and cut ends
notes: C-terminally his-tagged fusion protein of GBS 6313 PabD (gbs0851) devoid of signal peptide
Consider B1, for which, in the experiment with A549 cells [2], the “binding of protein-coated latex beads to A549 cells” value was “significant binding”. In the experiment on A549 cells [1], the “adherence of GBS 6313 to A549 cells in the presence of fusion protein” value was “significantly reduced” and the “invasion of A549 cells by GBS 6313 in the presence of fusion protein” value was “significantly reduced”. In addition, in experiment [3], the “immune response in mice (detection of fusion protein by mice sera)” value was “high immunogenicity”.
